This passage reports IC50 results from patent publication US20250304567A1, “PYRROLIDIONE DERIVATIVES AS INHIBITORS OF NF KAPPA B INDUCING KINASE” (priority 2022, published 2025).

Assay [1] concerns the target Recombinant Human NF-kappaB-Inducing Kinase (NIK/MAP3K14) (Homo sapiens, UniProt Q99558). The experiment in a line: Inhibition of auto-phosphorylation of recombinant human NIK/MAP3K14 activity (AlphaScreen). It counts as biochemical. Conditions: 5 μM ATP, 1 nM NIK, average if tested more than once. The protocol:
Assay 1: Inhibition of Auto-Phosphorylation of Recombinant Human NF-kappaB-Inducing Kinase (NIK/MAP3K14) Activity (AlphaScreen™)
NIK/MAP3K14 auto-phosphorylation activity was measured using the AlphaScreen™ (αscreen) format (Perkin Elmer). All compounds tested were dissolved in dimethyl sulfoxide (DMSO) and further dilutions were made in assay buffer. The final DMSO concentration was 0.7% (v/v) in assays. The assay buffer was 50 mM Tris pH 7.5 containing 1 mM EGTA (ethylene glycol tetraacetic acid), 1 mM DTT (dithiothreitol), 0.1 mM Na3VO4, 5 mM MgCl2, and 0.01% Tween®20. The assays were carried out in 384 well Proxiplates (Perkin Elmer). The incubations consisted of the compound, 5 μM Adenosine-5′-triphosphate (ATP), and 1 nM NIK/MAP3K14. Incubations were initiated by the addition of GST-tagged NIK/MAP3K14 enzyme, carried out for 2 h at 25° C. and terminated by addition of stop buffer containing anti-phospho-IKK Ser176/180 antibody. Protein A Acceptor and Glutathione-Donor beads were added before reading using an EnVision Multilabel Plate Reader (Perkin Elmer). The signal obtained in the wells was normalized using high (full enzyme activity, 0.7% DMSO) and low controls (no enzyme activity, 0.7% DMSO, no ATP). IC50's were determined by fitting a sigmoidal curve to % inhibition of control versus Log10 compound concentration.
(In Alpha technology, singlet oxygen from a donor bead excites a nearby acceptor bead.)

Assay [2] relates to p-IKKa levels in L363 (NIK translocated multiple myeloma) cells. The experiment in a line: Effect of compounds on p-IKKa levels in L363 (NIK translocated multiple myeloma) cells (AlphaLISA SureFire Ultra p-IKKa Ser176/180). It counts as cell-based, human. Conditions: Homo sapiens, L-363, p-IKKa levels in L363 cells; average if tested more than once; read-out: Assay 2 IC50. The method, then:
Assay 2: Effect of Compounds on p-IKKa Levels in L363 (NIK Translocated Multiple Myeloma) Cells
All compounds tested were dissolved and serially diluted in DMSO, 1:3 dilution for 11 points in an Echo compatible plate. 100% DMSO was added to columns 12 and 24 of the plate to serve as high and low signal controls. This compound plate was used to spot 20 nL of compound or DMSO into a Greiner 384 well TC plate (781080). The final DMSO concentration was 0.3% (v/v) in cell assays. Human L363 cells (ATCC) were cultured in RPM11640 medium supplemented with GlutaMax, non-essential amino acids, sodium pyruvate and 10% fetal bovine serum. Cells were routinely maintained at densities of 0.2×10^6 cells per ml-2×10^6 cells per mL at 37° C. in a humidified 5% CO2 atmosphere incubator. Cells were passaged twice a week splitting back to obtain the low density. The day before the assay, cells were washed twice in HBSS (Hank's Balanced Salt Solution), resuspended in Dulbecco's Modified Eagle Medium (DMEM)+0.5% IgG and protease free BSA (Jackson Immuno Research Laboratories), +/−250 ng/ml recombinant human B-cell activating factor (BAFF/BLyS/TNFSF13B) and incubated overnight at 37° C. in a humidified 5% CO2 atmosphere (bulk stimulation with or without BAFF). The next day, the cell concentration was adjusted to 1×10^7 cells/ml in DMEM+/−250 ng/ml BAFF+/−10 μM MG132 and plated at 10 μl/well into compound or DMSO spotted 384 well TC plates. Seeded cells were incubated at 37° C. in a humidified 5% CO2 atmosphere for 6 h. After 6 h, the plates were removed from the incubator and cell lysis was achieved by the addition of 2.5 μl 5× lysis buffer containing protease and phosphatase inhibitors, followed by shaking on a plate shaker at room temperature for 15 min. At the end of this incubation, lysed cells were sequentially treated and incubated with acceptor and donor bead mixes according to the manufacturer's protocol for a 1 plate/2-incubation suspension cell assay (AlphaLISA SureFire Ultra p-IKKa (Ser 176/180) Assay Kit (Perkin Elmer). Plates were read using an EnVision Multilabel Plate Reader (Perkin Elmer). Within an experiment, a concentration response curve for each compound was run in duplicate. The signal obtained in the test wells was normalized using high signal (BAFF stimulated cells, DMSO, MG132) and low signal (unstimulated cells, DMSO) controls. To determine the IC50, a sigmoidal curve was fitted to the plot of % inhibition versus Log10 compound concentration.

Chain of Recombinant Human NF-kappaB-Inducing Kinase (NIK/MAP3K14) (Q99558 whole entry): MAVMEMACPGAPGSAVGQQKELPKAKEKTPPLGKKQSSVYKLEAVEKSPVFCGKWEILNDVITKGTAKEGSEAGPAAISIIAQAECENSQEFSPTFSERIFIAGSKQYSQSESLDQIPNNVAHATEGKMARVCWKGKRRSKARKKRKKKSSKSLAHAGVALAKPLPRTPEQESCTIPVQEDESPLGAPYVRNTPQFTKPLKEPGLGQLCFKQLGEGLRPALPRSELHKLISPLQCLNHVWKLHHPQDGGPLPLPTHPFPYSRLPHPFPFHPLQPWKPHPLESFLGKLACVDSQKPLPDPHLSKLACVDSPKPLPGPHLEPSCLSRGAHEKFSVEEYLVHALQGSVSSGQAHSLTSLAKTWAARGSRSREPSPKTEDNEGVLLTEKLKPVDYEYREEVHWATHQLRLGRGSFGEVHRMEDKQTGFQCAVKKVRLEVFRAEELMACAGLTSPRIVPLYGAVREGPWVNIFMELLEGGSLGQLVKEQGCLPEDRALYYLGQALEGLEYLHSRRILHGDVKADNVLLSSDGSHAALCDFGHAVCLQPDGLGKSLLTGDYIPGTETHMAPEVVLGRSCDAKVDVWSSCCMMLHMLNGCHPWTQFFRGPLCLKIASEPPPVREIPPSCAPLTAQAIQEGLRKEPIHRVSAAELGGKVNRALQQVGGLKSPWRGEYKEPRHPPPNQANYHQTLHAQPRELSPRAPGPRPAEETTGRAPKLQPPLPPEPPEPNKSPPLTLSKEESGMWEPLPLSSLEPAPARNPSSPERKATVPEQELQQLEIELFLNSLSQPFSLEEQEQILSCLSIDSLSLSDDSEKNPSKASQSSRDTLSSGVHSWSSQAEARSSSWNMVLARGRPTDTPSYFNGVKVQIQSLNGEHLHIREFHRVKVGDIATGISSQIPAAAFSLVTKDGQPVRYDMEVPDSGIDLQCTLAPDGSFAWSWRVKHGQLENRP

The term IC50 denotes the concentration that inhibits the measured activity by half. `Cc1ncc(CNc2nccc(-c3csc(-c4cccc([C@]5(O)CCN(C)C5=O)c4)n3)n2)o1` [Example 110, (R)-3-hydroxy-1-methyl-3-(3-(4-(2-(((2-methyloxazol-5-yl)methyl)amino)pyrimidin-4-yl)thiazol-2-yl)phenyl)pyrrolidin-2-one]: the half-inhibitory concentration (IC50) is under 0.1 µM in assay [1] and over 0.501 µM in assay [2].

Take `C[C@H](Nc1nccc(-n2ccc(-c3cccc([C@]4(O)CCN(C)C4=O)c3)n2)n1)c1ccnn1C` (single isomer, unassigned) [Example 91]: the IC50 in assay [1] is under 0.1 µM; in assay [2], 0.1 to 0.5 µM.

With `CN1CC[C@@](O)(c2cccc(-c3csc(-c4ccnc(Nc5ccn(CC6CC6)n5)n4)n3)c2)C1=O` [Example 289, (R)-3-(3-(2-(2-((1-(cyclopropylmethyl)-1H-pyrazol-3-yl)amino)pyrimidin-4-yl)thiazol-4-yl)phenyl)-3-hydroxy-1-methylpyrrolidin-2-one], the IC50 in assay [1] and in assay [2] was over 0.501 µM throughout.

On to `CN1CC[C@@](O)(c2cccc(-c3nc(-c4ccnc(NC5(CO)CCC5)n4)cs3)c2)C1=O` [Example 191], for which the IC50 is under 0.1 µM in assay [1] and over 0.501 µM in assay [2].

In the case of `COCCn1ccc(Nc2nccc(-c3csc(-c4cccc([C@]5(O)CCN(C)C5=O)c4)n3)n2)n1` [Example 260, (R)-3-Hydroxy-3-(3-(4-(2-((1-(2-methoxyethyl)-1H-pyrazol-3-yl)amino)pyrimidin-4-yl)thiazol-2-yl)phenyl)-1-methylpyrrolidin-2-one], the IC50 in assay [1] was under 0.1 µM; in assay [2], 0.1 to 0.5 µM.

Consider `CN1CC[C@@](O)(c2cccc(-c3nc(-c4ccnc(Nc5cn(CC(F)F)nc5OC5CC5)n4)cs3)c2)C1=O` [Example 9, (R)-3-(3-(4-(2-((3-Cyclopropoxy-1-(2,2-difluoroethyl)-1H-pyrazol-4-yl)amino)pyrimidin-4-yl)thiazol-2-yl)phenyl)-3-hydroxy-1-methylpyrrolidin-2-one], for which the IC50 in assay [1] and in assay [2] was under 0.1 µM throughout.

For `COc1nn(CC(F)F)cc1Nc1nccc(-n2ccc(-c3cncc([C@]4(O)CCN(C)C4=O)c3)n2)n1` (single isomer, unassigned) [Example 150, (R)-3-(5-(1-(2-((1-(2,2-difluoroethyl)-3-methoxy-1H-pyrazol-4-yl)amino)pyrimidin-4-yl)-1H-pyrazol-3-yl)pyridin-3-yl)-3-hydroxy-1-methylpyrrolidin-2-one or (S)-3-(5-(1-(2-((1-(2,2-difluoroethyl)-3-methoxy-1H-pyrazol-4-yl)amino)pyrimidin-4-yl)-1H-pyrazol-3-yl)pyridin-3-yl)-3-hydroxy-1-methylpyrrolidin-2-one], the IC50 in assay [1] and in assay [2] was under 0.1 µM in each case.

On to `CN1CC[C@@](O)(c2cccc(-c3nc(-c4ccnc(Nc5cn(C)nc5C(F)(F)F)n4)cs3)c2)C1=O` [Example 280, (R)-3-Hydroxy-1-methyl-3-(3-(4-(2-((1-methyl-3-(trifluoromethyl)-1H-pyrazol-4-yl)amino)pyrimidin-4-yl)thiazol-2-yl)phenyl)pyrrolidin-2-one], for which the IC50 in assay [1] is under 0.1 µM; in assay [2], 0.1 to 0.5 µM.

Turning to `CN1CC[C@@](O)(c2cccc(-c3nc(-c4ccnc(NC5(c6ncccn6)CC5)n4)cs3)c2)C1=O` [Example 226], the IC50 in assay [1] and in assay [2] was over 0.501 µM each time.

Regarding `CN1CC[C@@](O)(c2cccc(-c3nc(-c4ccnc(Nc5cccnc5C(F)(F)F)n4)cs3)c2)C1=O` [Example 166, (R)-3-Hydroxy-1-methyl-3-(3-(4-(2-((2-(trifluoromethyl)pyridin-3-yl)amino)pyrimidin-4-yl)thiazol-2-yl)phenyl)pyrrolidin-2-one], the values for the IC50 in assay [1] and in assay [2] were under 0.1 µM and over 0.501 µM, respectively.

Regarding `CN1CC[C@@](O)(c2cccc(-c3nc(-c4ccnc(Nc5cccc(OC(F)(F)F)n5)n4)cs3)c2)C1=O` [Example 167, (R)-3-Hydroxy-1-methyl-3-(3-(4-(2-((6-(trifluoromethoxy)pyridin-2-yl)amino)pyrimidin-4-yl)thiazol-2-yl)phenyl)pyrrolidin-2-one], the values for the half-maximal inhibitory concentration (IC50) in assay [1] and in assay [2] were under 0.1 µM and over 0.501 µM, respectively.

Regarding `CN1CCC(O)(c2ccnc(-c3cccc(-c4ccnc(Nc5ccn(C)n5)n4)n3)c2)C1=O` (racemic) [Example 31, (R,S)-3-Hydroxy-1-methyl-3-(6′-(2-((1-methyl-1H-pyrazol-3-yl)amino)pyrimidin-4-yl)-[2,2′-bipyridin]-4-yl)pyrrolidin-2-one], the IC50 in assay [1] and in assay [2] was over 0.501 µM in each case.

With `CN1CC[C@@](O)(c2cccc(-c3nc(-c4ccnc(NC5CCC(F)(F)CC5)n4)cs3)c2)C1=O` [Example 241], the IC50 in assay [1] is under 0.1 µM; in assay [2], over 0.501 µM.

Take `CN1CC[C@@](O)(c2cccc(-c3nc(-c4ccnc(Nc5nn(C)c6ccccc56)n4)cs3)c2)C1=O` [Example 69, (R)-3-hydroxy-1-methyl-3-(3-(4-(2-((1-methyl-1H-indazol-3-yl)amino)pyrimidin-4-yl)thiazol-2-yl)phenyl)pyrrolidin-2-one]: the IC50 in assay [1] was under 0.1 µM; in assay [2], over 0.501 µM.

For `COC[C@H](Nc1nccc(-c2nc(-c3cccc([C@]4(O)CCN(C)C4=O)c3)cs2)n1)c1ccnn1C` (single isomer, unassigned) [Example 129], the figures for the IC50 in assay [1] and in assay [2] were under 0.1 µM and 0.1 to 0.5 µM, respectively.

As to `CN1CC[C@@](O)(c2cccc(-c3nc(-c4ccnc(N[C@H]5C[C@@H](O)C5)n4)cs3)c2)C1=O` [Example 180], the IC50 in assay [1] was 0.1 to 0.5 µM; in assay [2], over 0.501 µM.

Consider `COc1nn(CC(F)(F)F)cc1Nc1nccc(-c2csc(-c3cccc([C@]4(O)CCN(C)C4=O)c3)n2)n1` [Example 101, (R)-3-hydroxy-3-(3-(4-(2-((3-methoxy-1-(2,2,2-trifluoroethyl)-1H-pyrazol-4-yl)amino)pyrimidin-4-yl)thiazol-2-yl)phenyl)-1-methylpyrrolidin-2-one], for which the IC50 in assay [1] and in assay [2] was under 0.1 µM throughout.

Take `Cc1ccnc(CNc2nccc(-c3csc(-c4cccc([C@]5(O)CCN(C)C5=O)c4)n3)n2)n1` [Example 114, (R)-3-hydroxy-1-methyl-3-(3-(4-(2-(((4-methylpyrimidin-2-yl)methyl)amino)pyrimidin-4-yl)thiazol-2-yl)phenyl)pyrrolidin-2-one]: the IC50 is 0.1 to 0.5 µM in assay [1] and over 0.501 µM in assay [2].

For the molecule `CN1CC[C@@](O)(c2cccc(-c3nc(-c4ccnc(Nc5ccccn5)n4)cs3)c2)C1=O` [Example 77, (R)-3-hydroxy-1-methyl-3-(3-(4-(2-(pyridin-2-ylamino)pyrimidin-4-yl)thiazol-2-yl)phenyl)pyrrolidin-2-one], the IC50 in assay [1] was under 0.1 µM; in assay [2] it was over 0.501 µM.

For the molecule `CN1CC[C@@](O)(c2cccc(-c3nc(-c4ccnc(Nc5ccnn5C)n4)cs3)c2)C1=O` [Example 176], the IC50 in assay [1] and in assay [2] was under 0.1 µM in each case.

Regarding `CN1CC[C@@](O)(c2cccc(-c3nc(-c4ccnc(N[C@H]5CCCc6cn[nH]c65)n4)cs3)c2)C1=O` (single isomer, unassigned) [Example 136], the values for the IC50 in assay [1] and in assay [2] were 0.1 to 0.5 µM and over 0.501 µM, respectively.

As for `CN1CC[C@@](O)(c2cccc(-c3nc(-c4ccnc(Nc5cn6ccccc6n5)n4)cs3)c2)C1=O` [Example 179], the IC50 in assay [1] and in assay [2] was over 0.501 µM each time.
